Source: ChEMBL document CHEMBL4482322, “Uses of tryptanthrin and derivative thereof in preparing hldo2 inhibitor” (2017)

How the values were obtained:
[1] = target: T1, Indoleamine 2,3-dioxygenase 2 (Homo sapiens) (UniProt Q6ZQW0); test: Inhibition of human IDO2 at 10 uM using L-tryptophan as substrate incubated for 30 min assessed as reduction in conversion of N-formyl kynurenine to kynurenine relative to control
T1 sequence (whole entry): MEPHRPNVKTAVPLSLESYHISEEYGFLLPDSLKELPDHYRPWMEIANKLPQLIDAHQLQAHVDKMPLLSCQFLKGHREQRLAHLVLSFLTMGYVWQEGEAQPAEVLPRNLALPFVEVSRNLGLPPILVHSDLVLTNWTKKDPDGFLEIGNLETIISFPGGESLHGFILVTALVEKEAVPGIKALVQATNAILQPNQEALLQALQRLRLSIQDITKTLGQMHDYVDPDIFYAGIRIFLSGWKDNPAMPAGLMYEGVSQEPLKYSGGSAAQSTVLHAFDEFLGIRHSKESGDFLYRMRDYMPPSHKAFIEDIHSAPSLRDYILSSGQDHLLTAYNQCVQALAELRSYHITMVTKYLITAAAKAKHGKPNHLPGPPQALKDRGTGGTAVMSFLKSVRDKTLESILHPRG

[2] = target: T2, Indoleamine 2,3-dioxygenase 2 (Homo sapiens, UniProt Q6ZQW0); test: Inhibition of human IDO2 using L-tryptophan as substrate assessed as reduction in conversion of N-formyl kynurenine to kynurenine
T2 sequence (Q6ZQW0 whole entry): T1 sequence (whole entry)

[3] = target: T3, Indoleamine 2,3-dioxygenase 1 (Homo sapiens, UniProt P14902); test: Inhibition of IDO1 (unknown origin) using L-tryptophan as substrate incubated for 30 min assessed as reduction in conversion of N-formyl kynurenine to kynurenine by dixon plot analysis
T3 sequence (P14902 whole entry): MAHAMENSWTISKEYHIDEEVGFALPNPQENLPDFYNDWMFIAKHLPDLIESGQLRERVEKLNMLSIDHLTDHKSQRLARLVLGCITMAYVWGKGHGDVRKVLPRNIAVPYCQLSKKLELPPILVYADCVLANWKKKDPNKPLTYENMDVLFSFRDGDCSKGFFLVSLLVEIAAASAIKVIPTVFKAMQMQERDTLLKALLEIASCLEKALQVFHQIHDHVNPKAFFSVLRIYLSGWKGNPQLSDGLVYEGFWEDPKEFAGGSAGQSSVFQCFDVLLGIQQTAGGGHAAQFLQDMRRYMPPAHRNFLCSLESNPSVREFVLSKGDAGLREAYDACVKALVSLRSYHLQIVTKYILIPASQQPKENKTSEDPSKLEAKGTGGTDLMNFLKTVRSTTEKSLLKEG

[4] = target: T3, Indoleamine 2,3-dioxygenase 1; test: Inhibition of IDO1 in human U87MG cells in presence of L-tryptophan incubated for 24 h; format: cell-based

Row | Structure (SMILES) | inhibition [1] [%] | other results
1 | O=C1c2cc([N+](=O)[O-])ccc2-n2c1nc1ccccc1c2=O | 63 | IC50 [2]: 0.00187 mM
2 | O=C1c2c(Cl)cccc2-n2c1nc1ccccc1c2=O | 18 to 47 | –
3 | O=C1c2ccccc2-n2c1nc1ccccc1c2=O | 18 to 47 | –
4 | Cn1cc(C[C@@H](N)C(=O)O)c2ccccc21 | 8 | –
5 | O=C1c2cc(Br)ccc2-n2c1nc1ccccc1c2=O | 18 to 47 | –

Further lines, with some results ahead:

Row | inhibition [1] [%] | Structure (SMILES) | other results
6 | 18 to 47 | O=C1c2cc(F)ccc2-n2c1nc1ccc(F)cc1c2=O | –
7 | 18 to 47 | O=C1c2ccc(Cl)cc2-n2c1nc1ccccc1c2=O | –
8 | 18 to 47 | O=C1c2cc(F)ccc2-n2c1nc1ccccc1c2=O | –
9 | 18 to 47 | O=C1c2ccccc2-n2c1nc1ccc(F)cc1c2=O | Ki [3]: > 3.9 mM; IC50 [4]: > 3.9 mM
10 | 18 to 47 | Cc1ccc2c(c1)C(=O)c1nc3ccccc3c(=O)n1-2 | IC50 [4]: > 3.9 mM
11 | 8 | Cn1cc(C[C@H](N)C(=O)O)c2ccccc21 | –
